Measurements taken from publication PMC10584170, “Machine learning-based phenotypic imaging to characterise the targetable biology of Plasmodium falciparum male gametocytes for the development of transmission-blocking antimalarials” (PLOS Pathogens, 2023).

Legend:
[1] = system: P. falciparum male gametocytes; test: P. falciparum Dual Gamete Formation Assay (PfDGFA), male readout (exflagellation); format: cell-based, Plasmodium falciparum NF54; settings: for Average inhibition male (%): average of replicates; for % inhibition male (individual replicates) R1: replicate R1; for % inhibition male (individual replicates) R3: replicate R3; for % inhibition male (individual replicates) R4: replicate R4; for HitlevelM: hits selected on >50% inhibition in the male readout across replicates; for Activity: hit = >50% inhibition in male or female readout in at least 3 replicates, 0 = no class assigned
Outline: (§1)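 First, day-14 P. falciparum NF54 gametocytes receive compound for 24 h at 37°C in 1% O2/3% CO2. Next, ookinete medium with Cy3 anti-Pfs25 triggers gametogenesis at 28°C and male exflagellation is imaged. Finally, after 24 h in the dark, Cy3-labelled females are imaged.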

[2] = system: P. falciparum female gametocytes; test: P. falciparum Dual Gamete Formation Assay (PfDGFA), female readout (Pfs25-positive female gametes); format: cell-based, Plasmodium falciparum NF54; settings: for Average inhibition female (%): average of replicates; for % inhibition female (individual replicates) R1: replicate R1; for % inhibition female (individual replicates) R3: replicate R3; for % inhibition female (individual replicates) R4: replicate R4; for HitlevelF: hits selected on >50% inhibition in the female readout across replicates
Outline: as §1

[3] = 2µM, 24h preincubation with gametocytes prior to induction of gametogenesis
[4] = PfDGFA at 2µM, 24h preincubation
[5] = PfDGFA at 2µM, 24h preincubation with gametocytes prior to induction of gametogenesis

Row | Structure (SMILES) | Average inhibition male (%) [1, 3] [%] | % inhibition male (individual replicates) R1 [1, 3] [%] | % inhibition male (individual replicates) R3 [1, 3] [%] | % inhibition male (individual replicates) R4 [1, 3] [%] | HitlevelM ([1]; 2µM, 24h preincubation) | Activity [1, 4] | Average inhibition female (%) [2, 3] [%] | % inhibition female (individual replicates) R1 [2, 3] [%] | % inhibition female (individual replicates) R3 [2, 3] [%] | % inhibition female (individual replicates) R4 [2, 3] [%] | HitlevelF ([2]; 2µM, 24h preincubation) | % inhibition male (individual replicates) R1 [1, 5] [%] | % inhibition male (individual replicates) R3 [1, 5] [%] | % inhibition male (individual replicates) R4 [1, 5] [%] | Average inhibition male (%) [1, 4] [%] | % inhibition female (individual replicates) R1 [2, 5] [%] | % inhibition female (individual replicates) R3 [2, 5] [%] | % inhibition female (individual replicates) R4 [2, 5] [%] | Average inhibition female (%) [2, 4] [%]
1 | COc1cc(Br)c(S(=O)(=O)n2cc(CN3CCC(N)CC3)c3cc(Cl)ccc32)cc1OC.O=C(O)C(F)(F)F [TCMDC-136384] | 17.6 | 5.7 | -10.3 | 29.6 | 0 | 0 | 13.1 | 17.7 | 22.3 | -2.1 | 0 |  |  |  |  |  |  |  | 
2 | COc1cc(C(=O)N2CCN(C(C)C)CC2)ccc1CN(C)CCCCN1CCN(c2cccc(Cl)c2Cl)CC1.Cl [TCMDC-136506] | 24.1 | 21.0 | -5.5 | 30.9 | 1 | 0 | 13.2 | 17.9 | 17.6 | 12.7 | 0 |  |  |  |  |  |  |  | 
3 | CN(C)Cc1c(O)ccc2[nH]c(-c3cccc(F)c3)nc12 [TCMDC-136535] |  |  |  |  |  |  |  |  |  |  |  | -6.0 | -26.3 | 8.9 | -3.8 | 14.3 | -20.0 | -2.1 | -3.2
4 | C[C@@H](CNc1ccnc(Nc2ccc3[nH]c(=O)[nH]c3c2)n1)c1ccccc1 [TCMDC-136803] |  |  |  |  |  |  |  |  |  |  |  | -12.9 |  | -10.1 | -9.4 | 0.6 | -4.3 | 9.5 | 0.458
5 | Cc1cc(N2CCCN(CC3CCCCC3)CC2)nc(Nc2ccc(Br)cc2)n1 [TCMDC-137133] | -4.7 | -4.0 | -2.0 | -6.5 | 0 | 0 | 14.4 | 13.7 | 2.2 | 35.3 | 0 |  |  |  |  |  |  |  | 
6 | CCOc1cc(Cc2cnc(N)nc2N)cc(OCC)c1O [TCMDC-137181] |  |  |  |  |  |  |  |  |  |  |  | 23.6 | 21.9 | 11.2 | 22.7 | -0.02 | 1.9 | -15.6 | -3.9
7 | CNC(=O)C(NC(=O)c1ccccc1C(=O)OC)c1ccccc1 (stereo not shown) [TCMDC-137226] |  |  |  |  |  |  |  |  |  |  |  | 12.9 | -28.2 | -18.5 | -3.7 | 18.3 | -7.8 | -6.5 | 2.2
8 | COc1cc(Cc2cnc(N)nc2N)cc(OCCCCC2SC(=O)NC2=O)c1Br (stereo not shown) [TCMDC-137240] |  |  |  |  |  |  |  |  |  |  |  | 22.0 | 3.4 | -19.8 | 3.4 | 12.9 | 1.7 | -5.0 | 2.6
9 | Cc1nc2nc(N)nc(N)c2c(C)c1Cc1ccccc1Br.Cl [TCMDC-137242] |  |  |  |  |  |  |  |  |  |  |  | 34.5 | 1.0 | -12.5 | 16.6 | 10.1 | -11.3 | 2.1 | -2.4
10 | Cc1c(Cc2ccccc2Br)cnc2nc(N)nc(N)c12.Cl [TCMDC-137244] |  |  |  |  |  |  |  |  |  |  |  | 13.7 | 18.7 | 3.9 | 10.5 | 1.3 | -18.4 | -3.4 | -6.0
11 | CCC(CC)n1c(C)cc2c3c(N)nc(N)nc3ccc21 [TCMDC-137283] | 25.7 | 19.3 | 21.9 | 21.2 | 0 | 0 | 4.2 | -6.1 | 8.3 | 19.7 | 0 |  |  |  |  |  |  |  | 
12 | CCCc1cc(Cc2cnc(N)nc2N)cc(CCC)c1OCCCCC(=O)O [TCMDC-137293] | -0.757 | 18.6 | 1.6 | -35.8 | 0 | 0 | 8.1 | 3.0 | -4.5 | 42.6 | 0 |  |  |  |  |  |  |  | 
13 | CCN(CC)S(=O)(=O)n1ncc2c3c(N)nc(N)nc3ccc21.Cl [TCMDC-137302] |  |  |  |  |  |  |  |  |  |  |  | 16.7 | -8.5 | -41.8 | 0.1 | 5.9 | -12.1 | -12.9 | -8.3
14 | O=C1O[C@H](c2ccccc2)[C@H](c2ccccc2)N(C(=O)OCc2ccccc2)[C@H]1Cc1ccccc1C1CCCC1 [TCMDC-137303] | -2.7 | 16.1 |  | -23.7 | 0 | 0 | 4.6 | 6.2 | -0.36 | 6.0 | 0 |  |  |  |  |  |  |  | 
15 | CCc1cc2c3c(N)nc(N)nc3ccc2n1C(C)(C)C [TCMDC-137306] |  |  |  |  |  |  |  |  |  |  |  | 25.5 | 27.4 | 15.6 | 21.0 | -1.8 | -28.9 | 1.8 | -7.8
